Usually IC50 stands for the concentration needed to halve the response being measured.

Substitutions are numbered along the chain they refer to.

Format in all cases: cell-based
The target in test [1] is T1, TWIK1 (K2P1.1/KCNK1) (Homo sapiens, UniProt O00180, T225A).
T1 construct: full-length cDNA (OriGene) in pcDNA3.1(neo+), stably expressed in HEK293; mutants transiently transfected in HEK293 with CD8; homodimer
T1 sequence (O00180 1-336 T225A): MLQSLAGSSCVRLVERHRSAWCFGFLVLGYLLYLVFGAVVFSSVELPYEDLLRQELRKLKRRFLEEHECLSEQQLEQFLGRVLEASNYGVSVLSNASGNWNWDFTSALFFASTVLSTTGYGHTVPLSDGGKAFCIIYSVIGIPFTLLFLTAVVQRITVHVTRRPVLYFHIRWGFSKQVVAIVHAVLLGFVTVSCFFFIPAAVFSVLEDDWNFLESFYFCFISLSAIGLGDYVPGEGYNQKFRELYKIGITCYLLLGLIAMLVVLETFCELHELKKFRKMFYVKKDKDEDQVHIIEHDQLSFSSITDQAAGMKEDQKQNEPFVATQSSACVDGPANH
Description: whole-cell patch clamp, transiently transfected HEK293, Hill fit. (In patch-clamp work, channel activity is measured electrically.)

The target of test [2] is T2, TWIK1 (K2P1.1/KCNK1) (Homo sapiens, UniProt O00180).
T2 construct: full-length cDNA (OriGene) in pcDNA3.1(neo+), stably expressed in HEK293; mutants transiently transfected in HEK293 with CD8; homodimer
T2 sequence (O00180 1-336): T1 sequence (O00180 1-336 T225A) with A225T
Briefly: whole-cell patch clamp, HEK293-TWIK1 stable line, Hill fit.

In test [3] the target is T3, TWIK1 (K2P1.1/KCNK1) (Homo sapiens, UniProt O00180, L223A).
T3 construct: full-length cDNA (OriGene) in pcDNA3.1(neo+), stably expressed in HEK293; mutants transiently transfected in HEK293 with CD8; homodimer
T3 sequence (O00180 1-336 L223A): T1 sequence (O00180 1-336 T225A) with L223A, A225T
Briefly: whole-cell patch clamp, transiently transfected HEK293, Hill fit.

For test [4], the target named is T4, TWIK1 (K2P1.1/KCNK1) (Homo sapiens, UniProt O00180, S224A).
T4 construct: full-length cDNA (OriGene) in pcDNA3.1(neo+), stably expressed in HEK293; mutants transiently transfected in HEK293 with CD8; homodimer
T4 sequence (O00180 1-336 S224A): T1 sequence (O00180 1-336 T225A) with S224A, A225T
The description is as above.

In test [5] the target is T5, TWIK1 (K2P1.1/KCNK1) (Homo sapiens, UniProt O00180, G229A).
T5 construct: full-length cDNA (OriGene) in pcDNA3.1(neo+), stably expressed in HEK293; mutants transiently transfected in HEK293 with CD8; homodimer
T5 sequence (O00180 1-336 G229A): T1 sequence (O00180 1-336 T225A) with A225T, G229A
Described as above.

Test [6] addresses T6, TWIK1 (K2P1.1/KCNK1) (Homo sapiens, UniProt O00180, I140A).
T6 construct: full-length cDNA (OriGene) in pcDNA3.1(neo+), stably expressed in HEK293; mutants transiently transfected in HEK293 with CD8; homodimer
T6 sequence (O00180 1-336 I140A): T1 sequence (O00180 1-336 T225A) with I140A, A225T
The test is described as above.

On to `C=CCc1ccc(O)c(-c2cc(CC=C)ccc2O)c1` [magnolol], for which the half-maximal inhibitory concentration (IC50) on TWIK1 (K2P1.1/KCNK1) [1] is 21.8 ± 7.93 µM; against TWIK1 (K2P1.1/KCNK1) [2], 6.21 ± 0.13 µM; on TWIK1 (K2P1.1/KCNK1) [3], 9.55 ± 1.62 µM; against TWIK1 (K2P1.1/KCNK1) [4] it was 7.43 ± 3.2 µM; on TWIK1 (K2P1.1/KCNK1) [5] it was 20.8 ± 3.2 µM; against TWIK1 (K2P1.1/KCNK1) [6] it was 10.2 ± 1.07 µM.
